Earlier results, collected in patent US9993449B2, “(S)-3-amino-4-(difluoromethylenyl)cyclopent-1-ene-1-carboxylic acid, and related compounds as GABA aminotransferase inactivators for the treatment of epilepsy, addiction and hepatocellular carcinoma” (NORTHWESTERN UNIVERSITY, priority 2015, dated 2018).

How the values were obtained:
[1] = test system: aspartate aminotransferase (Asp-AT); conditions: reported; cited from earlier work
[2] = test system: alanine aminotransferase (Ala-AT); conditions: reported; cited from earlier work
[3] = biological target: T1, ornithine aminotransferase (OAT) (Homo sapiens, UniProt P04181); conditions: reported; cited from earlier work
T1 sequence (P04181 26-439): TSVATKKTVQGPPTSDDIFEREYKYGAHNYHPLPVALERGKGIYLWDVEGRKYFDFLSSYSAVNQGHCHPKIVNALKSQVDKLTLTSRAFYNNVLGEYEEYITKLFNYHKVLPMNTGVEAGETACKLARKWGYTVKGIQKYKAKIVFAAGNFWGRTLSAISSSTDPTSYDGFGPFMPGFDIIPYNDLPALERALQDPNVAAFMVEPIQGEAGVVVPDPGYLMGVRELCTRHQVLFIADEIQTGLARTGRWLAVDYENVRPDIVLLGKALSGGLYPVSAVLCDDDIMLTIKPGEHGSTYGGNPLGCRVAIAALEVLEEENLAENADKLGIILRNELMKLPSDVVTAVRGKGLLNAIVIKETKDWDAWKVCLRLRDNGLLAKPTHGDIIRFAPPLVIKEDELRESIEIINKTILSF

hERG channel = biological target: T2, hERG channel (Homo sapiens, UniProt Q12809); conditions: earlier finding for CPP-115; cited from earlier work
T2 construct: host or cells: CHO-K1
T2 sequence (Q12809 whole entry): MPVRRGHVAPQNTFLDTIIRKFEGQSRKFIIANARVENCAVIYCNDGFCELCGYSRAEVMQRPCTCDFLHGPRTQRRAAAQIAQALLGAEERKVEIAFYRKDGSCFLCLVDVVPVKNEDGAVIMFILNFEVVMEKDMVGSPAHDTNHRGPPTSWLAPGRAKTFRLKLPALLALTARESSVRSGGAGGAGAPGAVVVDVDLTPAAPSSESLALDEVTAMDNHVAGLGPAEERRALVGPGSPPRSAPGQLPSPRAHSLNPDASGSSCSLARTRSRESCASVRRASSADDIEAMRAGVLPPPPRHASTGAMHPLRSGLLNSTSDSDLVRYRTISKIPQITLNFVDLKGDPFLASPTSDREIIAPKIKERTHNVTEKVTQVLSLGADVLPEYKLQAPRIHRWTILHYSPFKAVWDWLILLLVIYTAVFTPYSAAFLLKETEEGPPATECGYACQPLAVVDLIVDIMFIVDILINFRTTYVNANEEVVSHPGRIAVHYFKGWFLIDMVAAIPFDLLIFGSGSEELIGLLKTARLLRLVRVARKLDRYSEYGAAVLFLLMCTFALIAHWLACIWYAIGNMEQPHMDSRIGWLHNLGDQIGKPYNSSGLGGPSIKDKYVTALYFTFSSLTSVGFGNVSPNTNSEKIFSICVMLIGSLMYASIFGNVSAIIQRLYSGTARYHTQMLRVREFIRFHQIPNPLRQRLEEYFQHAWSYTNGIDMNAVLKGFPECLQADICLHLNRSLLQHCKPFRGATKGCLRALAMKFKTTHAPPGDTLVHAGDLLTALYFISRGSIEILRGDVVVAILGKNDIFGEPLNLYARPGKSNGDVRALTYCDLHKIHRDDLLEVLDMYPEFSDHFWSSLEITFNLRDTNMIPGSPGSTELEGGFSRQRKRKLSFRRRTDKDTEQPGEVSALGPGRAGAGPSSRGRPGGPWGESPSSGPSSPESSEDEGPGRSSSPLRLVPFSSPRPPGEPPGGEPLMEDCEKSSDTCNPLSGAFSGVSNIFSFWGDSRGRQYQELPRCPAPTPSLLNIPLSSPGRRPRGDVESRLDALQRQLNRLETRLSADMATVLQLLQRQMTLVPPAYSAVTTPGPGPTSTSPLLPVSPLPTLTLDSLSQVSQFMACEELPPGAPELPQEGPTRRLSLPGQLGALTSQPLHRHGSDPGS

CYP1A = biological target: T3, CYP1A (Homo sapiens, UniProt P05177); conditions: earlier finding for CPP-115; cited from earlier work
T3 construct: tissue Eurofins Panlabs; host or cells: human liver microsomes
T3 sequence (P05177 1-516): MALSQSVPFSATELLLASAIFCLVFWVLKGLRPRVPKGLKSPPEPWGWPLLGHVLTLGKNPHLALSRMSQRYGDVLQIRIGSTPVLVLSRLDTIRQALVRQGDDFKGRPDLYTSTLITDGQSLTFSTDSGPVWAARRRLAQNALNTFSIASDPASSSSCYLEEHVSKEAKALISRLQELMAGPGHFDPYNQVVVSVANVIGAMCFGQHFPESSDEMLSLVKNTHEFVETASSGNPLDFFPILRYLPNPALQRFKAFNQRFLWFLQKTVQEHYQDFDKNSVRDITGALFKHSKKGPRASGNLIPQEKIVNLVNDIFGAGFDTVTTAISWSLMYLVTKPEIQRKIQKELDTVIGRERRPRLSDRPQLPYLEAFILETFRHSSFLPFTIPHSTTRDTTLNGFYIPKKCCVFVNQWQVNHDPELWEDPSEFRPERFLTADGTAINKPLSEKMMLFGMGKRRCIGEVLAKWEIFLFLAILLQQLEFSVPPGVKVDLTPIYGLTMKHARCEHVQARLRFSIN

CYP2B6 = biological target: T4, CYP2B6 (Homo sapiens, UniProt P20813); conditions: earlier finding for CPP-115; cited from earlier work
T4 construct: tissue Eurofins Panlabs; host or cells: human liver microsomes
T4 sequence (P20813 1-491): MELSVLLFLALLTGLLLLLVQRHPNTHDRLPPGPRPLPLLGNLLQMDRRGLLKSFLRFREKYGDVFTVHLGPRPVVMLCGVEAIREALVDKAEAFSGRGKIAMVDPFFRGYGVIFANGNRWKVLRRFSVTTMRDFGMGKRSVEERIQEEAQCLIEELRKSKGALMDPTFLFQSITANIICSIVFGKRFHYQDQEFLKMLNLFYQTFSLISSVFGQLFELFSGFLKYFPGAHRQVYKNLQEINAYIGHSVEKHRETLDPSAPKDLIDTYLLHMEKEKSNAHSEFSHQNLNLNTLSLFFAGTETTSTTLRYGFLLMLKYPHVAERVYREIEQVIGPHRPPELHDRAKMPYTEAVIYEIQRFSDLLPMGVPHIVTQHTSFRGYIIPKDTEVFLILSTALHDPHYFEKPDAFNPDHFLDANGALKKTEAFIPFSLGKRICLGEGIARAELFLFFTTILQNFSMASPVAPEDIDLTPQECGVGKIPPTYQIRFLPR

CYP2C8 = biological target: T5, CYP2C8 (Homo sapiens, UniProt P10632); conditions: earlier finding for CPP-115; cited from earlier work
T5 construct: tissue Eurofins Panlabs; host or cells: human liver microsomes
T5 sequence (P10632 1-490): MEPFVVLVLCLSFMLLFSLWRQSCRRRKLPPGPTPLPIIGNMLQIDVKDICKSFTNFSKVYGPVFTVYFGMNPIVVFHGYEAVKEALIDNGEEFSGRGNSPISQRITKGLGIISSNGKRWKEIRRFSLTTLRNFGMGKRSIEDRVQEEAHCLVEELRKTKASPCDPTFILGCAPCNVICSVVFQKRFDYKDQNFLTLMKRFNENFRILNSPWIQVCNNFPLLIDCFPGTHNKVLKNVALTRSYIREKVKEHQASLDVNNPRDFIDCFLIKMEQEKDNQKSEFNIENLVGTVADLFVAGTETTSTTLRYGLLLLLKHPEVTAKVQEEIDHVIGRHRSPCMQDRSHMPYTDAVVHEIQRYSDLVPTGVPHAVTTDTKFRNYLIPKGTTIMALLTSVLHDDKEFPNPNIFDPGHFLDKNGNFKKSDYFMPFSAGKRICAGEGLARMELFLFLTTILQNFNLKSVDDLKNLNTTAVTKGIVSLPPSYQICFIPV

CYP2C9 = biological target: T6, CYP2C9 (Homo sapiens, UniProt P11712); conditions: earlier finding for CPP-115; cited from earlier work
T6 construct: tissue Eurofins Panlabs; host or cells: human liver microsomes
T6 sequence (P11712 whole entry): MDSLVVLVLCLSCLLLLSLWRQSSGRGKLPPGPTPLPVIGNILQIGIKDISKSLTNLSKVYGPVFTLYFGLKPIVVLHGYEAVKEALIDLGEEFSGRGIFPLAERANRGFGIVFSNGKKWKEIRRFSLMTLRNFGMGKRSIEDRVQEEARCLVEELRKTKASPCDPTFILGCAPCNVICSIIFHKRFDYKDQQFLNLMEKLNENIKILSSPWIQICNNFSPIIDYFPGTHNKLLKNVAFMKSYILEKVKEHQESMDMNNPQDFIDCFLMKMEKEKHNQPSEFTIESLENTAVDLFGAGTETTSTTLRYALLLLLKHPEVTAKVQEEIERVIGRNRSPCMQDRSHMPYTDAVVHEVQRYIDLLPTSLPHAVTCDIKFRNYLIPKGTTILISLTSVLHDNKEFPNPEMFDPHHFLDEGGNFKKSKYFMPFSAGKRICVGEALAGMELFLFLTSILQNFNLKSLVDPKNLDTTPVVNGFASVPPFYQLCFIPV

CYP2C19 = biological target: T7, CYP2C19 (Homo sapiens, UniProt P33261); conditions: earlier finding for CPP-115; cited from earlier work
T7 construct: tissue Eurofins Panlabs; host or cells: human liver microsomes
T7 sequence (P33261 whole entry): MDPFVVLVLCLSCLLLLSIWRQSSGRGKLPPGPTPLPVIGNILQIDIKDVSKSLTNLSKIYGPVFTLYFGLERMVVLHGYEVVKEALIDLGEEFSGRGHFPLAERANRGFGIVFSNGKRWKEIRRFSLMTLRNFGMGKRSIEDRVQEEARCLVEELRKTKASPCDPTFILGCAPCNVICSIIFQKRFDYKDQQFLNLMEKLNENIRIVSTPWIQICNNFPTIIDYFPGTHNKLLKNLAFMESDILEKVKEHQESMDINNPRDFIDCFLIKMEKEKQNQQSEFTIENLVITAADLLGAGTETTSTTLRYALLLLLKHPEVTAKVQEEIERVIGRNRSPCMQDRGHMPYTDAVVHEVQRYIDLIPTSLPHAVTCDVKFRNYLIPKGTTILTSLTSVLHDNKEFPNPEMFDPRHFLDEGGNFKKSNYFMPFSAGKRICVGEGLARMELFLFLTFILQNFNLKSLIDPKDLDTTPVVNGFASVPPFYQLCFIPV

CYP2D6 = biological target: T8, CYP2D6 (Homo sapiens, UniProt P10635); conditions: earlier finding for CPP-115; cited from earlier work
T8 construct: tissue Eurofins Panlabs; host or cells: human liver microsomes
T8 sequence (P10635 whole entry): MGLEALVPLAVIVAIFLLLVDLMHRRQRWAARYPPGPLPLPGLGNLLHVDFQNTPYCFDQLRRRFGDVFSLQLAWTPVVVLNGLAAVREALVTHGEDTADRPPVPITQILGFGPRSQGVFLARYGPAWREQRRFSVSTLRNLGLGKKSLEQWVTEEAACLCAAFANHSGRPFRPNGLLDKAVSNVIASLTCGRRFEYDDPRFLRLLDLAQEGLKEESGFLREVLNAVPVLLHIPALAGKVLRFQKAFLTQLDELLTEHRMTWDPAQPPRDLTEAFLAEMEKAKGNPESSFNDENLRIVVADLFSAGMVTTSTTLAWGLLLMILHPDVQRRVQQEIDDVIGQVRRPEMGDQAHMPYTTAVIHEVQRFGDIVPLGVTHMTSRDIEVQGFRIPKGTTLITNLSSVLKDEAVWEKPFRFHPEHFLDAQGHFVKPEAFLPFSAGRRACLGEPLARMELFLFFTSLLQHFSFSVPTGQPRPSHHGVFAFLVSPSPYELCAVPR

CYP3A = conditions: earlier finding for CPP-115; cited from earlier work
striatal dopamine levels = conditions: previous similar tests; cited from earlier work
[4] = test system: glucose metabolism in the hippocampus; conditions: previous similar tests; cited from earlier work
infantile spasms = conditions: multiple-hit rat model; cited from earlier work
[5] = in vivo; cited from earlier work
[6] = test system: release of dopamine in the NAcc; conditions: freely moving rats after 20 mg/kg cocaine; cited from earlier work
cocaine addiction = cocaine addiction in humans, 9-week double-blind trial; cited from earlier work
[7] = long-term administration; cited from earlier work
addiction = conditions: cocaine, nicotine, methamphetamine, heroin, and alcohol; cited from earlier work

N[C@H]1C[C@@H](C(=O)O)CC1=C(F)F [CPP-115, (1S,3S)-3-amino-4-difluoromethylenyl-1-cyclopentanoic acid]
inactivation or inhibition of Asp-AT [1]: not to inactivate or inhibit
inactivation or inhibition of Ala-AT [2]: not to inactivate or inhibit
KI (inactivation) [3]: 116 µM
inhibition of the activity of the hERG channel (hERG channel): does not inhibit
inhibition or induction of CYP 1A (CYP1A): does not inhibit or induce
inhibition or induction of CYP 2B6 (CYP2B6): does not inhibit or induce
inhibition or induction of CYP 2C8 (CYP2C8): does not inhibit or induce
inhibition or induction of CYP 2C9 (CYP2C9): does not inhibit or induce
inhibition or induction of CYP 2C19 (CYP2C19): does not inhibit or induce
inhibition or induction of CYP 2D6 (CYP2D6): does not inhibit or induce
inhibition or induction of CYP 3A (CYP3A): does not inhibit or induce
cocaine-induced increases in striatal dopamine (striatal dopamine levels): blocked
hippocampal metabolism (cocaine-induced) [4]: did not completely block
duration of spasm suppression versus vigabatrin (infantile spasms): longer spasm suppression
margin of safety versus vigabatrin [5]: much larger
retinal toxicity liability versus vigabatrin [5]: considerably lower
times more potent than vigabatrin in reducing the release of dopamine in the NAcc [6]: > 300 times

C=CC(N)CCC(=O)O (stereo not shown) [vigabatrin]
cocaine-induced increases in striatal dopamine (striatal dopamine levels): blocked
hippocampal metabolism (cocaine-induced) [4]: did not completely block
patients achieving abstinence (cocaine addiction): up to 28%
epilepsy patients with permanent vision loss [7]: 25-40%
treatment of addiction in animal models (addiction): successful
